# Literature values, collected in patent US20090022706A1, “SUBSTITUTED CYCLOHEXENES” (Auspex Pharmaceuticals, Inc., priority 2007, published 2009).
# What was measured:
# [1] = test system: Toll-Like Receptor 4 (TLR4)-mediated cytokine production; conditions: under pro-inflammatory conditions
# [2] = test system: nitric oxide (NO) production
structure (smiles),measurement,setting,value
"CCOC(=O)C1=CCCC[C@H]1S(=O)(=O)Nc1ccc(F)cc1Cl [TAK-242, (R)-6-(2-chloro-4-fluoro-phenylsulfamoyl)-cyclohex-1-enecarboxylic acid ethyl ester]","production of various cytokines, such as IL-1β, IL-6, IL-12, and TNF-α",[1],inhibits
same,in vitro production of nitric oxide (NO),[2],inhibits
